Consider 24 compounds from publication PMC7497679, “Structure-based design, synthesis, and evaluation of the biological activity of novel phosphoroorganic small molecule IAP antagonists” (Investigational New Drugs, 2020).

This test has as its target T1, XIAP BIR3 domain (Homo sapiens, UniProt P98170).
T1 construct: fluorescent probe 4 and the XIAP BIR3 domain (Sino Biological, Beijing, China) were used for all measurements; purchased Sino Biological, Beijing, China
The test is described as follows: Fluorescence polarization inhibition (competition) assay. The format is binding. The conditions noted are these: for inhibition at 50 µM: 0.5 h. Here is the method:
The fluorescence polarization assay was performed at r.t. in Corning 384-well black, polystyrene flat bottom plates (Corning, NY, USA) on a Synergy H4 Hybrid Reader (BioTek, Bad Friedrichshall, Germany). For fluorescence polarization measurements, (milipolarization units, mP) 484/20 nm excitation and 528/20 nm emission filters were selected. Phosphate buffer (pH 7.5) supplemented with γ-globulin (100 µg/mL) and NaN3 (0.02% w/v), fluorescent probe 4 and the XIAP BIR3 domain (Sino Biological, Beijing, China) were used for all measurements. All experiments were performed in duplicate. The obtained fluorescence polarization assay data were analyzed with Prism 5.0 Software (GraphPad Software, San Diego, ca.).
After a 15 min incubation at r.t., fluorescent probe 4 (2 nM) was added. The values were measured 30 min after the moment the probe was added. The assay was performed in phosphate buffer with a final DMSO concentration of 1.4% (v/v). […] In order to evaluate the quality and precision of the performed screening assay, we determined the Z´ factor as described by Zhang et al.. The obtained fluorescence polarization values were used to determine the percent inhibition, which was plotted as a function of the protein concentration. The EC50 and Ki values were calculated with GraphPad software (log(agonist) vs. response (variable slope) model) in combination with the web tool developed by Nikolovska-Coleska et al..
Fluorescence polarization inhibition assay and data analysis for 41m and 42m compounds was performed as described in the Material and Methods section of the manuscript. Briefly, 50 nM solution of the BIR3 XIAP protein in polarization buffer was added into phosphoroorganic compound solution (from 50 μM to 0.0537 nM). After 15 min incubation at r.t. the fluorescent probe 4 (2 nM) was added.
The values were read after 30 minutes from the moment the probe was added. The obtained fluorescence polarization values were used to determine the percentage of inhibition which was plotted as a function of the protein concentration (Supplementary Figure S4).
(1 picture or pasted object on this page, not shown here)

The mark [1] stands for this setting: antagonist 50 µM, inhibition of protein-probe interaction.
Setting [2] is: XIAP BIR3 50 nM, fluorescent probe 4 2 nM.
Where [3] appears, read: XIAP BIR3 50 nM, fluorescent probe 4 2 nM, read-out: EC50.
Where [4] appears, read: XIAP BIR3 50 nM, fluorescent probe 4 2 nM, read-out: log EC50 (converted).

Read-outs that look alike come from different tables or passages of the source. Square brackets hold non-standard residues; d marks the D form. Ends that are not written are not given here. Peptide text beside a SMILES is read from it. Chg = N[C@H](C(=O)O)C1CCCCC1; NMeA = CN[C@@H](C)C(=O)O

T1 sequence (P98170 252-356 limits assumed): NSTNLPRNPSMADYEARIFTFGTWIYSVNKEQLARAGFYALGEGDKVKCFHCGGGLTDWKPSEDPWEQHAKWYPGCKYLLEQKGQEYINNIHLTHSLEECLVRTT

As for `CN[C@@H](C)C(=O)N[C@H](C(=O)N1CCC[C@H]1C(=O)NC(C)P(=O)(Oc1ccccc1)Oc1ccccc1)C1CCCCC1` (stereo partly drawn) [Compound 30, diphenyl (1-((S)-1-((S)-2-cyclohexyl-2-((S)-2-(methylamino)propanamido)acetyl)pyrrolidine-2-carboxamido)ethyl)phosphonate], the inhibition (usually the relative decrease from the control value, in per cent) at 50 µM under setting [1] was determined as 69%. Under setting [2], the Ki (commonly a measure of affinity in units of concentration, obtained from inhibition or displacement) came out at 15 µM. The 50% effective concentration (EC50) – broadly, the concentration that produces a half-maximal response – is, setting by setting: under setting [3], 30.2 µM; under setting [4], 30.3 µM.

In the case of `CN[C@@H](C)C(=O)N[C@H](C(=O)N1CCC[C@H]1C(=O)NC(C)P(=O)(Oc1ccc(C(C)(C)C)cc1)Oc1ccc(C(C)(C)C)cc1)C1CCCCC1` (stereo partly drawn) [Compound 28, bis(4-(tert-butyl)phenyl) (1-((S)-1-((S)-2-cyclohexyl-2-((S)-2-(methylamino)propanamido)acetyl)pyrrolidine-2-carboxamido)ethyl)phosphonate], the inhibition at 50 µM under setting [1] is 77.3%. Also, under setting [2], the inhibition constant Ki came to 13.3 µM. Besides, the EC50 is 26.8 µM under setting [3] and 26.7 µM under setting [4].

Take `CN[C@@H](C)C(=O)N[C@H](C(=O)N1CCC[C@H]1C(=O)NCP(=O)(C(C)(C)C)C(C)(C)C)C1CCCCC1` [Compound 6]: the inhibition at 50 µM under setting [1] came to 72%. Under setting [2], the Ki stood at 9.87 µM. Moreover, the EC50 is, setting by setting: under setting [3], 19.9 µM; under setting [4], 19.9 µM.

On to `CN[C@@H](C)C(=O)N[C@H](C(=O)N1CCC[C@H]1C(=O)NC(C)P(=O)(Oc1ccccc1)Oc1ccccc1)C(C)C` (stereo partly drawn) [Compound 29, diphenyl (1-((S)-1-((S)-3-methyl-2-((S)-2-(methylamino)propanamido)butanoyl)pyrrolidine-2-carboxamido)ethyl)phosphonate], for which, under setting [1], the inhibition at 50 µM worked out at 62.1%. Moreover, under setting [2], the Ki is 15.8 µM. Besides, the EC50 is, setting by setting: under setting [3], 31.9 µM; under setting [4], 31.8 µM.

Turning to `CN[C@@H](C)C(=O)N[C@H](C(=O)N1CCC[C@H]1C(=O)NCP(=O)(c1ccccc1C)c1ccccc1C)C(C)C` [Compound 18, (S)-N-((di-o-tolylphosphoryl)methyl)-1-((S)-3-methyl-2-((S)-2-(methylamino)propanamido)butanoyl)pyrrolidine-2-carboxamide], the inhibition at 50 µM under setting [1] turned out to be 62%. Besides, the Ki under setting [2] amounted to 14.5 µM. The EC50 was 29.3 µM under setting [3] and 29.2 µM under setting [4].

In the case of `CN[C@@H](C)C(=O)N[C@H](C(=O)N1CCC[C@H]1C(=O)NC(C)P(=O)(Oc1ccc(C(C)C)cc1)Oc1ccc(C(C)C)cc1)C(C)C` (stereo partly drawn) [Compound 25], the inhibition at 50 µM under setting [1] turned out to be 81.8%. Further, the inhibition constant Ki under setting [2] was 10.9 µM. Also, the EC50 under setting [3] was found to be 22 µM and the half-maximal effective concentration (EC50) under setting [4] was 22 µM.

In the case of `CN[C@@H](C)C(=O)N[C@H](C(=O)N1CCC[C@H]1C(=O)NC(C)P(=O)(Oc1ccc(C(C)(C)C)cc1)Oc1ccc(C(C)(C)C)cc1)C(C)C` (stereo partly drawn) [Compound 27, bis(4-(tert-butyl)phenyl) (1-((S)-1-((S)-3-methyl-2-((S)-2-(methylamino)propanamido)butanoyl)pyrrolidine-2-carboxamido)ethyl)phosphonate], the inhibition at 50 µM under setting [1] was 83.3%. Besides, the Ki under setting [2] was found to be 10.5 µM. Further, the EC50 reads like this: under setting [3], 21.3 µM; under setting [4], 21.3 µM.

As to `CN[C@@H](C)C(=O)N[C@H](C(=O)N1CCC[C@H]1C(=O)NCP(=O)(C1CCCCC1)C1CCCCC1)C1CCCCC1` [Compound 10], the inhibition at 50 µM under setting [1] is approximately 25%.

On to `CN[C@@H](C)C(=O)N[C@H](C(=O)N1CCC[C@H]1C(=O)NCP(=O)(c1ccc(C)cc1)c1ccc(C)cc1)C1CCCCC1` [Compound 16, (S)-1-((S)-2-cyclohexyl-2-((S)-2-(methylamino)propanamido)acetyl)-N-((di-p-tolylphosphoryl)methyl)pyrrolidine-2-carboxamide], for which, under setting [1], the inhibition at 50 µM is 57%. Under setting [2], the inhibitory constant (Ki) worked out at 20 µM. Also, the EC50 reads like this: under setting [3], 40.3 µM; under setting [4], 40.4 µM.

In the case of `CN[C@@H](C)C(=O)N[C@H](C(=O)N1CCC[C@H]1C(=O)NCP(=O)(C(C)(C)C)C(C)(C)C)C(C)C` [Compound 5], under setting [1], the inhibition at 50 µM was 63.2%. Moreover, the Ki under setting [2] was determined as 14.7 µM. The EC50 reads like this: under setting [3], 29.6 µM; under setting [4], 29.6 µM.

On to `CN[C@@H](C)C(=O)N[C@H](C(=O)N1CCC[C@H]1C(=O)NCP(=O)(C(C)C)C(C)C)C(C)C` [Compound 7], for which, under setting [1], the inhibition at 50 µM came out at 32%.

Turning to `CN[C@@H](C)C(=O)N[C@H](C(=O)N1CCC[C@H]1C(=O)NCP(=O)(C1CCCCC1)C1CCCCC1)C(C)C` [Compound 9], the inhibition at 50 µM under setting [1] is approximately 25%.

In the case of `CN[C@@H](C)C(=O)N[C@H](C(=O)N1CCC[C@H]1C(=O)NCP(=O)(c1cc(C)cc(C)c1)c1cc(C)cc(C)c1)C1CCCCC1` [Compound 21], under setting [1], the inhibition at 50 µM was 74.4%. Moreover, the Ki under setting [2] worked out at 11.2 µM. Also, the EC50 was 22.5 µM under setting [3] and 22.5 µM under setting [4].

For the compound `CN[C@@H](C)C(=O)N[C@H](C(=O)N1CCC[C@H]1C(=O)NC(C(C)C)P(=O)(Oc1ccccc1)Oc1ccccc1)C1CCCCC1` (stereo partly drawn) [Compound 34], under setting [1], the inhibition at 50 µM was determined as 70.5%. Moreover, the inhibition constant Ki under setting [2] stood at 11.8 µM. For the same compound, the EC50 reads like this: under setting [3], 23.9 µM; under setting [4], 23.9 µM.

As for `CN[C@@H](C)C(=O)N[C@H](C(=O)N1CCC[C@H]1C(=O)NCP(=O)(C(C)C)C(C)C)C1CCCCC1` [Compound 8], the inhibition at 50 µM under setting [1] came out at 41.3%.

Turning to `CN[C@@H](C)C(=O)N[C@H](C(=O)N1CCC[C@H]1C(=O)NC(C)P(=O)(c1ccc(C)cc1)c1ccc(C)cc1)C1CCCCC1` (stereo partly drawn) [Compound 17, (2S)-1-((S)-2-cyclohexyl-2-((S)-2-(methylamino)propanamido)acetyl)-N-(1-(di-p-tolylphosphoryl)ethyl)pyrrolidine-2-carboxamide], the inhibition at 50 µM under setting [1] was 74%. Also, the Ki under setting [2] was 9.55 µM. In addition, the EC50 under setting [3] came to 19.3 µM and the EC50 under setting [4] is 19.3 µM.

Take `CN[C@@H](C)C(=O)N[C@H](C(=O)N1CCC[C@H]1C(=O)NCP(=O)(c1ccccc1)c1ccccc1)C1CCCCC1` [Compound 12]: under setting [2], the Ki stood at 13 µM and the “log EC50” value was determined as 1.420 ± 0.051 µM. Moreover, under setting [3], the EC50 worked out at 26.3 µM. Moreover, under setting [1], the “% Inh (50 µM)” value turned out to be 67.1%.

`CN[C@@H](C)C(=O)N[C@H](C(=O)N1CCC[C@H]1C(=O)NC(C)P(=O)(Oc1ccc(C(C)C)cc1)Oc1ccc(C(C)C)cc1)C1CCCCC1` (stereo partly drawn) [Compound 26]: the inhibition at 50 µM under setting [1] amounted to 85.8%. The Ki under setting [2] amounted to 9.84 µM. Also, the half-maximal effective concentration (EC50) under setting [3] is 19.8 µM and the EC50 under setting [4] was 19.8 µM.

Consider [NMeA]-[Chg]-Pro-OH [Compound 2], for which the “interaction with the XIAP BIR3 domain (in words)” value (fluorescence polarization) was “did not interact with the XIAP BIR3 domain at a significant level”.

As to `CN[C@@H](C)C(=O)N[C@H](C(=O)N1CCC[C@H]1C(=O)NC(C)P(=O)(c1cc(C)cc(C)c1)c1cc(C)cc(C)c1)C(C)C` (stereo partly drawn) [Compound 22], the inhibition at 50 µM under setting [1] came to 59.2%. Further, the inhibition constant (Ki) under setting [2] was 16.1 µM. Besides, the EC50 under setting [3] was 32.5 µM and the EC50 under setting [4] was 32.4 µM.

In the case of `CN[C@@H](C)C(=O)N[C@H](C(=O)N1CCC[C@H]1C(=O)NCP(=O)(c1ccccc1C)c1ccccc1C)C1CCCCC1` [Compound 19, (S)-1-((S)-2-cyclohexyl-2-((S)-2-(methylamino)propanamido)acetyl)-N-((di-o-tolylphosphoryl)methyl)pyrrolidine-2-carboxamide], the inhibition at 50 µM under setting [1] was found to be 66.2%. In addition, the Ki under setting [2] was 13.9 µM. In addition, the EC50 reads like this: under setting [3], 28 µM; under setting [4], 28.1 µM.

`CCc1ccc(OP(=O)(Oc2ccc(CC)cc2)C(C)NC(=O)[C@@H]2CCCN2C(=O)[C@@H](NC(=O)[C@H](C)NC)C(C)C)cc1` (stereo partly drawn) [Compound 23]: the inhibition at 50 µM under setting [1] was found to be 64.1%. The Ki under setting [2] is 17 µM. Further, the concentration for a half-maximal effect (EC50) was 34.2 µM under setting [3] and 34.3 µM under setting [4].

For `CC(C)[C@H](NC(=O)[C@H](C)N)C(=O)N1CCC[C@H]1C(=O)N[C@@H](Cc1c[nH]c2ccccc12)C(=O)O` [Compound 3, H2N-Ala-Val-Pro-Trp-OH, reference compound] (H-AVPW-OH), the EC50 under setting [3] was found to be 0.34 µM.

Consider `CN[C@@H](C)C(=O)N[C@H](C(=O)N1CCC[C@H]1C(=O)NC(CC(C)C)P(=O)(Oc1ccccc1)Oc1ccccc1)C(C)C` (stereo partly drawn) [Compound 37], for which the inhibition at 50 µM under setting [1] came to 67.4%. Moreover, the Ki under setting [2] is 14 µM. Further, the EC50 by setting is: under setting [3], 28.1 µM; under setting [4], 28.1 µM.
